Among the data in ChEMBL document CHEMBL3286212, “Synthesis of isoquinolinone-based tricycles as novel poly(ADP-ribose) polymerase-1 (PARP-1) inhibitors” (Bioorg Med Chem Lett, 2014) are IC50 and CC50 values, retold here.

As a reminder, the IC50 is the midpoint of a concentration-inhibition curve. The term CC50 denotes the concentration at which the toxic effect on the cells reaches its halfway point.

Data set [1] deals with Poly [ADP-ribose] polymerase 1 (Homo sapiens, UniProt P09874). Description: Inhibition of human recombinant PARP-1 after 1 hr by ELISA. (In an ELISA, binding on a coated surface is turned into a signal by an enzyme label.)
Data set [2] can be described thus: Cytotoxicity against Chinese hamster V79 cells by sulforhodamine B assay. The class given is cell-based, Cricetulus griseus.
A short description of data set [3]: Cytotoxicity against BRCA1-deficient human MDA-MB-436 cells by sulforhodamine B assay. The class given is functional.
Data set [4] can be described thus: Cytotoxicity against BRCA2-deficient Chinese hamster VC8 cells by sulforhodamine B assay. In kind it is functional. The settings on record: Cricetulus griseus, V-C8. Background: The SRB assay estimates cell density from bound dye.

Chain of Poly [ADP-ribose] polymerase 1 (P09874 whole entry): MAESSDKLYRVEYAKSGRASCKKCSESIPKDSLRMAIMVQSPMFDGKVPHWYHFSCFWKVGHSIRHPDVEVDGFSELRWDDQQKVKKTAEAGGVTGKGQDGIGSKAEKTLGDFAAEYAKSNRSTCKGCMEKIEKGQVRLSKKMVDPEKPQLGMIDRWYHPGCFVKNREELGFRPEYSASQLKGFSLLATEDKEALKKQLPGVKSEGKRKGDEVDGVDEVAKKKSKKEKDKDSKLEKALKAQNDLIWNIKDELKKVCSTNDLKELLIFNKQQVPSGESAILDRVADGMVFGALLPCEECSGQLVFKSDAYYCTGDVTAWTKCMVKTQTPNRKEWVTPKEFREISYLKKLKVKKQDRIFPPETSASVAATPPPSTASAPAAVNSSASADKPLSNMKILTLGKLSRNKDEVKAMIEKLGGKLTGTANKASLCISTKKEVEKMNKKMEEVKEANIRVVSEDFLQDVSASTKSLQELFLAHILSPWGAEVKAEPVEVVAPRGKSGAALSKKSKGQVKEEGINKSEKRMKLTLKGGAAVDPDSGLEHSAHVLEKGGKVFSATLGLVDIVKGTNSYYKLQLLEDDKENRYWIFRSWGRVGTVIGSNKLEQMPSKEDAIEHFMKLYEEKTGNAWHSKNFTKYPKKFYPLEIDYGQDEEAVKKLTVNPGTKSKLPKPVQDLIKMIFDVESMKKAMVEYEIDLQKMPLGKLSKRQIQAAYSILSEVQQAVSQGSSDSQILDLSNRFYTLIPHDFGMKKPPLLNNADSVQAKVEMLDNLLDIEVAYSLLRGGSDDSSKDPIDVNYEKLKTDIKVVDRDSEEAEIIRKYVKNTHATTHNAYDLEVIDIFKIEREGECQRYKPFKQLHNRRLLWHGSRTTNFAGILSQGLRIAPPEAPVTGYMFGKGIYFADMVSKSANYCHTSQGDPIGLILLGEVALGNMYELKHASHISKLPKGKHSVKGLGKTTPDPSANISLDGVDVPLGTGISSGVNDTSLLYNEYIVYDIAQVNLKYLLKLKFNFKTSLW

With `Cc1c(C(=O)NCCN2CCCC2)sc2c1[nH]c(=O)c1ccccc12`, the IC50 in data set [1] was determined as 0.248 µM.
On the same count and under the same terms, for `CN1CCCN(C(=O)c2cc3c(n2C)-c2ccccc2C(=O)NC3)CC1` the value was 10 µM; for `COc1cccc(CN2CCN(C(=O)c3cc4[nH]c(=O)c5ccccc5c4n3C)CC2)c1`, 0.4 µM.
Still for that read-out and setting: for `Cn1c(C(=O)N2CC=C(c3ccc(F)cc3)CC2)cc2c1-c1ccccc1C(=O)NC2` the value was 1.67 µM.
Turning to `Cc1c(C(=O)N2CC=C(c3ccc(F)cc3)CC2)sc2c1[nH]c(=O)c1ccccc12`, in data set [1], the IC50 was found to be 0.133 µM.
Still for that read-out and setting: in the case of `Cn1c(C(=O)N2CCCNCC2)c(Cl)c2[nH]c(=O)c3ccccc3c21` it was 0.1 µM; in that of `Cn1c(C(=O)N2CCN(Cc3ccc([N+](=O)[O-])cc3)CC2)cc2[nH]c(=O)c3ccccc3c21`, more than 10 µM; in that of `CC(C)N1CCN(C(=O)c2cc3[nH]c(=O)c4ccccc4c3n2C)CC1`, 0.83 µM.
On the same count and under the same terms, for `Cc1c(C(=O)NCCN2CCN(C)CC2)sc2c1[nH]c(=O)c1ccccc12` the value was 0.284 µM; for `CN(C)CCNC(=O)c1cc2[nH]c(=O)c3ccccc3c2n1C`, 1.1 µM.
Regarding `O=C(c1cc(Cc2n[nH]c(=O)c3ccccc23)ccc1F)N1CCN(C(=O)C2CC2)CC1` [OLAPARIB], the values for the CC50 in data set [2], in data set [3] and in data set [4] were 8.98 µM, 0.0169 µM and 0.468 µM, respectively.
For the compound `Cc1c(C(=O)NCCN2CCOCC2)sc2c1[nH]c(=O)c1ccccc12`, in data set [1], the IC50 came out at 0.083 µM.
`Cn1c(C(=O)N2CCCNCC2)c(Br)c2[nH]c(=O)c3ccccc3c21`: the IC50 in data set [1] worked out at 0.1 µM.
Still for that read-out and setting: in the case of `CN1CCCN(C(=O)c2cc3[nH]c(=O)c4ccccc4c3n2C)CC1` it was 0.2 µM.
For `Cc1c(C(=O)N2CCC(N(C)C)CC2)sc2c1[nH]c(=O)c1ccccc12`, the CC50 in data set [2], in data set [3] and in data set [4] was more than 10 µM each time. The IC50 in data set [1] stood at 0.029 µM.
In the case of `CN(C)C1CCN(C(=O)c2cc3c(n2C)-c2ccccc2C(=O)NC3)CC1`, the 50% inhibitory concentration (IC50) in data set [1] was determined as 6.43 µM.
The same measure, in the same setting: in the case of `Cn1c(C(=O)N2CCNCC2)cc2[nH]c(=O)c3ccccc3c21` it was 0.044 µM.
For `CCN1CCN(C(=O)c2sc3c([nH]c(=O)c4ccccc43)c2C)CC1`, the values for the cytotoxic concentration (CC50) in data set [2], in data set [3] and in data set [4] were more than 10 µM, 3.48 µM and more than 10 µM, respectively. In addition, the IC50 in data set [1] came out at 0.079 µM.
On to `Cn1c(C(=O)N2CCN(Cc3ccccc3)CC2)cc2[nH]c(=O)c3ccccc3c21`, for which, in data set [1], the IC50 was found to be 0.86 µM.
The same measure, in the same setting: in the case of `Cn1c(C(=O)NCCN2CCCC2)cc2c1-c1ccccc1C(=O)NC2` it was 8.17 µM.
On to `CC(C)S(=O)(=O)N1CCN(C(=O)c2cc3[nH]c(=O)c4ccccc4c3n2C)CC1`, for which the concentration for half-maximal inhibition (IC50) in data set [1] was 0.6 µM.
Same read-out and setting: for `CN(C)CCCNC(=O)c1cc2[nH]c(=O)c3ccccc3c2n1C` the value was 0.3 µM.
With `Cc1c(C(=O)N2CCN(C(C)C)CC2)sc2c1[nH]c(=O)c1ccccc12`, the CC50 in data set [2], in data set [3] and in data set [4] was more than 10 µM each time. Moreover, the 50% inhibitory concentration (IC50) in data set [1] is 0.086 µM.
Turning to `Cn1c(C(=O)N2CCCNCC2)cc2[nH]c(=O)c3ccccc3c21`, the CC50 is more than 10 µM in data set [2], 1.19 µM in data set [3] and more than 10 µM in data set [4]. The 50% inhibitory concentration (IC50) in data set [1] was 0.1 µM.
With `Cn1c(C(=O)NCCCN2CCOCC2)cc2[nH]c(=O)c3ccccc3c21`, the IC50 in data set [1] worked out at 0.1 µM.
The same measure, in the same setting: for `Cc1c(C(=O)N2CCN(C)CC2)sc2c1[nH]c(=O)c1ccccc12` the value was 0.231 µM; for `CN1CCN(C(=O)c2cc3[nH]c(=O)c4ccccc4c3n2C)CC1`, 0.119 µM.
On the same count and under the same terms, in the case of `CN1CCN(C(=O)c2cc3c(n2C)-c2ccccc2C(=O)NC3)CC1` it was more than 10 µM.
